Paper PMC12730667, “A Scorpion Peptide Exerts Selective Anti-Leukemia Effects Through Disrupting Cell Membranes and Triggering Bax/Bcl-2-Related Apoptosis Pathway” (Biomolecules, 2025)
Where no end group is shown, it is not given here.

What was measured:
K562 cells = format: cell-based, human
Protocol: (§1) All cell lines, including CT26.WT, LLC, MV-4-11, HCT-116, ID8, Jurkat, L1210, OVCAR-8, YAC-1, MDA-MB-231, MEL, Mia PaCa-2, B16-F10, HepG2, A549 Hela, 4T1, Panco2, K562, RAJI, A375, HL-60, H1975, HaCat, HUVEC, and HDF, were obtained from the National Collection of Authenticated Cell Cultures (Shanghai, China) or saved in the lab and cultured in RPMI-1640 or DMEM or IMEM medium supplemented with 10% (v/v) fetal bovine serum (FBS), 100 units/mL penicillin, 100 µg/mL streptomycin, and 0.05% (v/v) L-glutamine serum in a humidified atmosphere of 5% CO2 at 37 °C.
(§2) To determine the effects of Lpep3 on cell cytotoxicity, the Cell Counting Kit-8 (CCK8) assay was performed according to the manufacturer’s protocol. Cells were seeded at 8 × 10^3 cells per well and treated with Lpep3 at different concentrations (100, 50, 25, 12.5, 6.25, 3.125, 1.56, 0.78, 0.39 μM) for 24 h. Subsequently, 10 μL of CCK8 reagent (Abbkine, Wuhan, China) was added to each well and incubated for 1–4 h at 37 °C. The absorbance at 450 nm was measured using a microplate reader (BioTek, Winooski, VT, USA). The half-maximal inhibitory concentration (IC50) was defined as the peptide concentration required to reduce cell viability by 50% relative to the untreated control. IC50 values were calculated using non-linear regression analysis of the dose–response curves in GraphPad Prism (8.0.2). The percentage of cellular viability was calculated using the following equation: Cell Viability %=ODSample−ODBlank/ODControl−ODBlank×100%

MV-4-11 cells = format: cell-based, human
Protocol: as §1, §2

Raji cells = format: cell-based, human; settings: Raji, 5, 10 and 20 μM, CCK-8
Protocol: as §1
as §2, with “Cells were seeded at 8 × 10^3 cells per well and treated with Lpep3 at different concentrations (100, 50, 25, 12.5, 6.25, 3.125, 1.56, 0.78, 0.39 μM) for 24 h.” left out

[1] = Solubility of the synthesized peptide in PBS and DMSO; format: physicochemical; settings: peptide excluded from experimental verification
Source text: Based on the anticancer prediction model CNBT-ACPred established by our team previously, there are 276 toxic animal polypeptides whose average prediction score is greater than 0.73. Then, based on the top prediction scores and species diversity, seven candidate peptides were chosen for subsequent experimental validation (Table 2).

[2] = tested on: 24 distinct cancer cell lines; format: cell-based; settings: CCK-8, 5, 10 and 20 μM
Protocol: as §1
as §2, with “Subsequently, 10 μL of CCK8 reagent (Abbkine, Wuhan, China) was added to each well and incubated for 1–4 h at 37 °C.” left out, “The half-maximal inhibitory concentration (IC50) was defined as the peptide concentration required to reduce cell viability by 50% relative to the untreated control.” left out
To comprehensively characterize the anticancer activity of peptides Lpep1–Lpep7, their cytotoxic effects across 24 distinct cancer cell lines were assessed using CCK-8 assays. […]

4T1 cells = format: cell-based; settings: 24 h
Protocol: as §1, §2

B16-F10 cells = format: cell-based; settings: 24 h
Protocol: as §1, §2

CT26.WT cells = format: cell-based; settings: 24 h
Protocol: as §1, §2

H1975 cells = format: cell-based; settings: 24 h
Protocol: as §1, §2

HDF cells = format: cell-based; settings: 24 h
Protocol: as §1, §2

HUVEC cells = format: cell-based; settings: 24 h
Protocol: as §1, §2

HaCaT cells = format: cell-based; settings: 24 h
Protocol: as §1, §2

ID8 cells = format: cell-based; settings: 24 h
Protocol: as §1, §2

LLC cells = format: cell-based; settings: 24 h
Protocol: as §1, §2

Panc02 cells = format: cell-based; settings: 24 h
Protocol: as §1, §2

A375 cells = format: cell-based, human; settings: 24 h
Protocol: as §1, §2

A549 cells = format: cell-based, human; settings: 24 h
Protocol: as §1, §2

HCT116 cells = format: cell-based, human; settings: 24 h
Protocol: as §1, §2

HL-60 cells = format: cell-based, human; settings: 24 h
Protocol: as §1, §2

HeLa cells = format: cell-based, human; settings: 24 h
Protocol: as §1, §2

Hep G2 cells = format: cell-based, human; settings: 24 h
Protocol: as §1, §2

Jurkat cells = format: cell-based, human; settings: 24 h
Protocol: as §1, §2

MDA-MB-231 cells = format: cell-based, human; settings: 24 h
Protocol: as §1, §2

Mia PaCa-2 cells = format: cell-based, human; settings: 24 h
Protocol: as §1, §2

OVCAR-8 cells = format: cell-based, human; settings: 24 h
Protocol: as §1, §2

L1210 cells = settings: 24 h
Protocol: as §1, §2

MEL cells = settings: 24 h
Protocol: as §1, §2

YAC-1 cells = settings: 24 h
Protocol: as §1, §2

Primary PBMC = format: cell-based; settings: 24 h
Protocol: Briefly, fresh anticoagulated whole blood was collected and diluted with 1× PBS buffer at a ratio of 1:1, followed by gentle mixing. Then, an appropriate volume of mononuclear cell separation medium was added to a sterile centrifuge tube, and the diluted blood sample was carefully layered onto the surface of the separation medium (separation medium–diluted whole blood = 1:2) while maintaining a clear interface between the two layers. Then, it was centrifuged at 450× g for 20–30 min at room temperature. After centrifugation, the plasma layer was aspirated and discarded, then the PBMC layer was carefully collected (i.e., the buffy coat) and transferred to a 15 mL centrifuge tube. […] The isolated PBMCs were then ready for subsequent experiments.
To determine the effects of Lpep3 on cell cytotoxicity, the Cell Counting Kit-8 (CCK8) assay was performed according to the manufacturer’s protocol. […] The absorbance at 450 nm was measured using a microplate reader (BioTek, Winooski, VT, USA). […] IC50 values were calculated using non-linear regression analysis of the dose–response curves in GraphPad Prism (8.0.2). The percentage of cellular viability was calculated using the following equation: Cell Viability %=ODSample−ODBlank/ODControl−ODBlank×100%

solid tumor cell lines = assay: CCK-8 IC50, solid cancer cell lines as a group; format: cell-based; settings: range over hepatocellular, pancreatic, breast, cervical, lung, colorectal, ovarian and melanoma cell lines, CCK-8, 24 h; read-out: IC50 values in solid cancers
Protocol: as §2
Based on the above results, subsequent studies will focus on determining the IC50 of Lpep3 to accurately quantify the intensity of its anticancer activity. […] The ovarian cell was the most sensitive in solid tumor cell lines.

non-cancer cells = format: cell-based; settings: 24 h
Protocol: as §2
The lowest values approached 0.6 μM in MV-4-11. […] Based on this discrepancy, concentrations of 0.5 μM and 1 μM were selected for subsequent experiments.

red blood cells = assay: Hemolytic activity assay; format: cell-based; settings: red blood cells in PBS, 37 °C, 1 h, absorbance 450 nm, 0.1% Triton X-100 as positive control, Figure S2B
Protocol: A total of 500 μL fresh whole blood was collected and diluted with 5 mL PBS and then centrifuged at 1000 rpm for 5 min to remove the plasma. The pellet was washed again by adding PBS to a final volume of approximately 10 mL, followed by centrifuging at 1000 rpm for 5 min. This washing step was repeated until the supernatant became clear. The resulting red blood cell pellet was then resuspended in 10 mL PBS. For the hemolysis assay, 200 μL suspension was mixed with 200 μL Lpep3 with different concentrations (100, 50, 25, 12.5, 6.25, 3.125, 1.57, 0.78, 0.39 μM). The positive control consisted of 200 μL suspension mixed with 200 μL 0.1% Triton X-100, while the negative control contained 200 μL RBC suspension and 200 μL PBS. All mixtures were incubated at 37 °C for 1 h, followed by centrifugation at 12,000 rpm for 5 min. The supernatant was collected and measured at 450 nm. The hemolysis rate was calculated using the following equation: Hemolysis rate%=ODSample−ODnegative/ODPositive−ODnagative×100%

[3] = In vivo biosafety in tumor-bearing nude mice (body weight, blood, liver/kidney function, H&E); set-up: species or system mouse; settings: 10 mg/kg i.p. every other day, 6 injections
Source text: Healthy male BALB/c nu/nu nude mice (aged 4–5 weeks) were purchased from Slac & Jingda Laboratory Animal Co., Ltd. (Changsha, China). All animal experiments were strictly approved by the Institutional Animal Care and Use Committee (IACUC) of Hunan Normal University, and the Guidelines for the Care and Use of Laboratory Animals issued by the National Institutes of Health (NIH, Bethesda, MD, USA) were strictly adhered to throughout the experiment. MV-4-11 cells (5 × 10^6 cells resuspended in a 1:1 mixture of Matrigel and PBS) were subcutaneously (s.c.) injected into the right axillary fossa of each mouse. When the tumor volume reached 100–150 mm^3, all mice were randomly divided into two groups (n = 4). Mice in the experimental group were intraperitoneally injected with 50 μL of Lpep3 (10 mg/kg), while those in the control group received an intraperitoneal injection of an equal volume of sterile PBS. The day of the first injection was defined as Day 0. Injections were administered every other day, with a total of 6 administrations. Additionally, the tumor volume and body weight of mice in each group were monitored at regular intervals. After the experiment, major organs were dissected, fixed in 4% paraformaldehyde (PFA), and subjected to histological examination. Major organs were further stained with hematoxylin and eosin (H&E) for pathological analysis.
After euthanasia, whole blood was collected and allowed to stand at 4 °C for 1 h and then centrifuged at 3000× g for 10 min to obtain serum. Serum biochemical and liver/kidney function parameters, including RBC, NEU, HGB, ALT, AST, BUN, and creatinine, were analyzed using an automated chemistry analyzer (TBA-40FR, Tochigi, Japan) according to the manufacturer’s instructions.

With “FVQWFSKFLGRIL [Lpep7, 13-residue candidate peptide, species Rana temporaria]” the cytotoxic activity (K562 cells; K562, 5, 10 and 20 μM, CCK-8) was “moderate activity”, the cytotoxic activity (MV-4-11 cells; MV-4-11, 5, 10 and 20 μM, CCK-8) was “moderate activity” and the cytotoxic activity (Raji cells) was “moderate activity”.

In the case of “GLFDIAKKVIGVIGSL [Lpep4, 16-residue candidate peptide, species Ranoidea raniformis]”, the “solubility in PBS and DMSO” value [1] is reported as “poor solubility”.

With FFGSLLSLGSKLLPSVFKLFQRKKE [Lpep3] the “cytotoxic effects across 24 distinct cancer cell lines” value [2] was “potent, broad-spectrum cytotoxic peptide”, the IC50 (4T1 cells) was 3050 nM and the IC50 (B16-F10 cells) was 11800 nM. For the same sequence, the IC50 (CT26.WT cells) was 2000 nM, the IC50 (H1975 cells) was 3040 nM and the IC50 (HDF cells) was 4520 nM. The IC50 (HUVEC cells) was 6420 nM, the IC50 (HaCaT cells) was 5800 nM and the IC50 (ID8 cells) was 1990 nM. The IC50 (LLC cells) was 2320 nM, the IC50 (Panc02 cells) was 2870 nM and the IC50 (A375 cells) was 2230 nM. It also gave a cell viability (A375 cells; 5 μM) of ~0%, an IC50 (A549 cells) of 2720 nM and an IC50 (HCT116 cells) of 3200 nM. The IC50 (HL-60 cells) was 1490 nM, the IC50 (HeLa cells) was 2720 nM and the cell viability (HeLa cells; 5 μM) was ~0%. It also gave an IC50 (Hep G2 cells) of 6990 nM, an IC50 (Jurkat cells) of 554 nM and a cell viability (Jurkat cells; 5 μM) of ~0%. For the same sequence, the IC50 (K562 cells; 24 h) was 656 nM, the cell viability (K562 cells; 24 h, 5 μM) was ~0% and the IC50 (MDA-MB-231 cells) was 2320 nM. The cell viability (MDA-MB-231 cells; 5 μM) was ~0%, the IC50 (MV-4-11 cells; 24 h) was 600 nM and the cell viability (MV-4-11 cells; 24 h, 5 μM) was ~0%. For the same sequence, the IC50 (Mia PaCa-2 cells) was 5400 nM, the IC50 (OVCAR-8 cells) was 1300 nM and the cell viability (OVCAR-8 cells; 5 μM) was ~0%. The IC50 (L1210 cells) was 2050 nM, the IC50 (MEL cells) was 563 nM and the IC50 (YAC-1 cells) was 728 nM. The IC50 (Primary PBMC) was 3810 nM, the IC50 (solid tumor cell lines) was 1300 to 11000 nM and the IC50 (non-cancer cells) was ~5000 nM. For the same sequence, the “concentration at which a 50% hemolysis rate was observed” value (red blood cells) was 12.5 µM, the “liver and kidney function indices (AST, ALT, UA, CRE)” value ([3]; n = 4, serum) was “remained within the normal range” and the “blood routine indices (RBC, HGB, Neu)” value ([3]; n = 4, vs PBS) was “no obvious difference”. The body weight ([3]; n = 4, vs PBS) was “no obvious difference” and the “H&E staining of liver, spleen and kidney” value ([3]; vs control group) was “no obvious damage”.
